Assay results published in PMC9747239, “State-selective modulation of heterotrimeric Gαs signaling with macrocyclic peptides” (Cell, 2022).
One block for each molecule: values may come before it. Where a SMILES comes first, the peptide text is derived from it. Bridges are numbered along the chain shown (N, C = ends). Where no end group is shown, it is not given here. [ ]: non-standard residue; d: D form. The star is where a group is joined. NH(CH2CH2O)2(CH2)6Cl = ClCCCCCCOCCOCCN*

B1: Biotinylated Avi-Gαs (WT), residues 7-380 of the short isoform of human Gαs (natural protein)
chain: SKTEDQRNEEKAQREANKKIEKQLQKDKQVYRATHRLLLLGAGESGKSTIVKQMRILHVNGFNGDSEKATKVQDIKNNLKEAIETIVAAMSNLVPPVELANPENQFRVDYILSVMNVPDFDFPPEFYEHAKALWEDEGVRACYERSNEYQLIDCAQYFLDKIDVIKQADYVPSDQDLLRCRVLTSGIFETKFQVDKVNFHMFDVGGQRDERRKWIQCFNDVTAIIFVVASSSYNMVIREDNQTNRLQEALNLFKSIWNNRWLRTISVILFLNKQDLLAEKVLAGKSKIEDYFPEFARYTTPEDATPEPGEDPRVTRAKYFIRDEFLRISTASGDGRHYCYPHFTCAVDTENIRRVFNDCRDIIQRMHLRQYELL
modifications: biotin on the Avi tag
notes: Gαs (GNAS), human, short isoform (380 residues), residues 7-380; Loaded with GppNHp (GNP) or GDP as the assay says; also called Biotinylated Gαs/GNP; Biotinylated Gαs/GDP; source: E. coli BL21(DE3), purified (TALON, Source-15Q, gel filtration), biotinylated with BirA; not shown: Avi tag, N-terminal, kept; His6, N-terminal, cleaved

How the values were obtained:
HeLa cells = assay: Chloroalkane penetration assay (CAPA); format: cell-based, human; details: HeLa cells expressing HaloTag, 19.5 h incubation
Protocol: The cell lines used for CAPA were HeLa cell lines, generated by Chenoweth and co-workers, that stably express HaloTag exclusively in the cytosol ([Peraro et al., 2018]). Cells were seeded in a 96-well plate the day before the experiment at a density of 4 × 10^4 cells per well. The day of the experiment the media was aspirated, and 100 μL of cyclic peptide dilutions in DMEM were added to the cells. Plate was incubated for 19.5 h at 37°C with 5% CO2. The contents of the wells were aspirated off, and wells were washed using fresh Opti-MEM for 15 min. The wash was aspirated off, and the cells were chased using 5 μM ct-TAMRA for 15 min, except for the No-ct-TAMRA control wells, which were incubated with Opti-MEM alone. The contents of the wells were aspirated and washed with fresh Opti-MEM for 30 min. After aspiration, cells were rinsed once with PBS (PBS). The cells were then trypsinized, quenched with DMEM, resuspended in PBS, and analyzed using a benchtop flow cytometer (CytoFLEX, Beckman). Final [cyclic peptide]: 0, 0.034, 0.10, 0.31, 0.93, 2.78, 8.33, 25 μM.

Gαs/GDP = molecular target: T1, Gαs/GDP (Homo sapiens, UniProt P63092); assay: Bio-layer interferometry (BLI), GDP-bound Gαs; details: read-out: KD, binding to Gαs/GDP
T1 construct: hexahistidine (N, cleaved yes); made in house; host or cells: E. coli BL21(DE3)
Protocol: BLI experiments were performed using an OctetRED384 instrument from ForteBio. All experiments were performed at 25°C using BLI buffer (10 mM HEPES pH 7.4, 150 mM NaCl, 1mM MgCl2, 0.05% Tween 20, 0.1% DMSO, 0.2 mM GNP or GDP). Cyclic peptides or Gα proteins were diluted to a series of concentrations (Final concentrations were indicated in Figures) in BLI buffer plus 10 μM Biotin. Assays were conducted in Greiner 384well, black, flat bottom polypropylene plates containing the protein solutions, BLI buffer plus 10 μM Biotin for dissociation, and serial dilutions of cyclic peptides to be tested.
Biotinylated proteins or cyclic peptides were immobilized on Streptavidin biosensors by dipping sensors into plate wells containing protein solutions at a concentration of 50–150 nM. Protein loading is around 2–3 nm. Cyclic peptide loading is around 0.2–0.3 nm. Sensors loaded with proteins or cyclic peptides were moved and dipped into wells with BLI buffer plus 10 μM Biotin to block unlabeled Streptavidin. […]
Raw kinetic data collected were processed with the Data Analysis software provided by the manufacturer using single reference subtraction in which buffer-only reference was subtracted (For GN13 analysis). […] The resulting data were analyzed based on a 1:1 binding model from which kon and koff values were obtained and then Kd values were calculated.

Gαs/GDP and Gβγ(C68S) = molecular target: T2, Gαs/GDP and Gβγ(C68S) (Homo sapiens, UniProt P63092); assay: FRET based Gαs/Gβγ interaction assay; format: binding
T2 construct: hexahistidine (N, cleaved yes); made in house; host or cells: E. coli BL21(DE3) (Gαs); Sf9 insect cells (Gβ1γ2)

[1] = Chemical stability assay in DMEM with 10% FBS; format: in vitro ADME; details: bovine, DMEM with 10% FBS (fetal bovine serum), 37 °C, values represent 95% confidence intervals, read-out: Half-life (hour), chemical stability in DMEM with 10% FBS
Protocol: (§1) These assays were conducted by Pharmaron Beijing CO., Ltd. Cyclic peptides working solutions were prepared at 10 μM in DMEM with 10% FBS (Avantor, Cat# 76,294–180) or human plasma (Pooled, Male & Female, BioIVT, Cat# HMN666664). The assays were performed in duplicate. Vials were incubated at 37 °C at 60 rpm in a water bath and taken at designated time points including 0, 480, 1080 and 1440 min. For each time point, the initiation of the reaction was staggered so all the time points were terminated with cold acetonitrile containing internal standards (IS, 100 nM alprazolam, 200 nM labetalol, 200 nM Imipramine and 2 μM ketoplofen) at the same time. Samples were vortexed then centrifuged at 4°C to remove proteins. The supernatants from centrifugation were diluted by ultra-pure H2O and used for LC-MS/MS analysis. All calculations were carried out using GraphPad Prism. Remaining percentages of parent compounds at each time point were estimated by determining the peak area ratios from extractedion chromatograms.

Plasma stability assay = format: in vitro ADME; details: both sexes, pooled human plasma, 37 °C, values represent 95% confidence intervals, read-out: Half-life (hour), plasma stability
Protocol: as §1

[2] = molecular target: T3, Adenylyl cyclase (C1 domain of ADCY5, VC1, with C2 domain of ADCY2, IIC2) (human, UniProt O95622 442-658; Q08462 871-1082); assay: AlphaScreen or HTRF; TR-FRET competition: biotinylated GNP-bound Gαs (100 nM) with streptavidin XL665, AC (VC1 20 nM, IIC2 40 nM, forskolin 100 uM) with anti-6His-Tb cryptate, GN13 0-40,000 nM, 1 h at room temperature, 1X PBS 7.4, 0.1% BSA, 2 mM DTT, 2 mM MgCl2; details: both partners purified
T3 construct: C1 domain (VC1) of adenylyl cyclase V; C2 domain (IIC2) of human adenylyl cyclase II, residues 871-1082; Forskolin (100 uM) was present in the assay; also called AC; VC1/IIC2; source: E. coli BL21(DE3), purified (TALON, gel filtration); VC1 and IIC2 mixed with forskolin as one AC stock

[3] = molecular target: T4, Adenylyl cyclase (AC): C1 domain of ADCY5 (VC1) with C2 domain of ADCY2 (IIC2), with forskolin (human, UniProt O95622 442-658; Q08462 871-1082); assay: AlphaScreen or HTRF; TR-FRET Gαs/adenylyl cyclase interaction assay: 100 nM GNP-bound biotinylated Gαs with streptavidin XL665, 20 nM VC1, 40 nM IIC2, 100 μM forskolin with anti-6His-Tb cryptate, cyclic peptide series; 1X PBS 7.4, 0.1% BSA, 2 mM DTT, 2 mM MgCl2, 1 h at room temperature; details: both partners purified
T4 construct: C1 domain of human ADCY5 (adenylyl cyclase V), residues 442-658; C2 domain of human ADCY2 (adenylyl cyclase II), residues 871-1082; In the TR-FRET assay AC was detected with anti-6His-Tb cryptate; source: E. coli BL21(DE3), each domain purified (TALON, gel filtration), mixed as an AC stock with forskolin

[4] = molecular target: B1; assay: BLI; biotinylated Gαs loaded with GDP immobilised on streptavidin biosensors (2-3 nm), cyclic peptide as analyte (4.12-1000 nM), association 120 s, dissociation 120 s, 25 °C, 10 mM HEPES pH 7.4, 150 mM NaCl, 1 mM MgCl2, 0.05% Tween 20, 0.1% DMSO, 0.2 mM GDP; double reference subtraction, 1:1 binding model; details: both partners purified

Molecule: CC[C@H](C)[C@@H]1NC(=O)[C@H](CC(C)C)NC(=O)[C@@H](Cc2ccc(O)cc2)NC(=O)CSC[C@@H](C(=O)NCC(N)=O)NC(=O)[C@@H]2CCCN2C(=O)[C@H](CC(C)C)NC(=O)[C@H](CC(N)=O)NC(=O)[C@H](CC(C)C)NC(=O)[C@H](C)NC(=O)[C@H](Cc2c[nH]c3ccccc23)NC(=O)[C@H](CCC(N)=O)NC(=O)[C@H](CCCNC(=N)N)NC(=O)[C@H](Cc2ccccc2)NC(=O)[C@H]([C@@H](C)O)NC1=O [cpGD20] ({CH2CO}-[dY]LITFRQWALNLPCG-NH2; thioether N-14)
Kd (Gαs/GDP): 14.5 ± 0.4 nM
IC50 (Gαs/GDP and Gβγ(C68S)): 14 ± 0.6 nM
half-life at 10 μM [1]: 37.4 to 50.3 h
half-life at 10 μM (Plasma stability assay): 7.16 to 12.7 h

Molecule: B1
binding result [2]: binds

B2: Biotinylated Avi-Gαs (WT), residues 7-380 of the short isoform of human Gαs (natural protein)
chain: SKTEDQRNEEKAQREANKKIEKQLQKDKQVYRATHRLLLLGAGESGKSTIVKQMRILHVNGFNGDSEKATKVQDIKNNLKEAIETIVAAMSNLVPPVELANPENQFRVDYILSVMNVPDFDFPPEFYEHAKALWEDEGVRACYERSNEYQLIDCAQYFLDKIDVIKQADYVPSDQDLLRCRVLTSGIFETKFQVDKVNFHMFDVGGQRDERRKWIQCFNDVTAIIFVVASSSYNMVIREDNQTNRLQEALNLFKSIWNNRWLRTISVILFLNKQDLLAEKVLAGKSKIEDYFPEFARYTTPEDATPEPGEDPRVTRAKYFIRDEFLRISTASGDGRHYCYPHFTCAVDTENIRRVFNDCRDIIQRMHLRQYELL
modifications: biotin on the Avi tag (BirA)
notes: human Gαs (GNAS), short isoform, residues 7-380; Loaded with GNP (GppNHp) or GDP; the nucleotide state is told by the assay; also called Gαs/GNP; Gαs/GDP; source: E. coli BL21(DE3), purified (TALON, Drice cleavage, BirA biotinylation, Source-15Q, gel filtration); not shown: Avi tag, N-terminal, kept; His6, N-terminal, cleaved
binding result [3]: binds

B3: GD20 (peptide)
peptide: {CH2CO}-[dY]LITFRQWAFNLPCG
modifications: thioether N-14
notes: Selected by RaPID mRNA display; Synthesised on NovaPEG Rink Amide resin, so a C-terminal amide is surmised; source: synthetic peptide (Fmoc solid phase synthesis, cyclised, RP-HPLC)
koff [4]: 0.00343 s⁻¹
kon [4]: 109000 M⁻¹ s⁻¹

Next, values leading:

cell penetration (CAPA) (HeLa cells): cell permeable
Molecule: CC[C@H](C)[C@@H]1NC(=O)[C@H](CC(C)C)NC(=O)[C@@H](Cc2ccc(O)cc2)NC(=O)CSC[C@@H](C(=O)NCC(=O)NCCOCCOCCCCCCCl)NC(=O)[C@@H]2CCCN2C(=O)[C@H](CC(C)C)NC(=O)[C@H](CC(N)=O)NC(=O)[C@H](Cc2ccccc2)NC(=O)[C@H](C)NC(=O)[C@H](Cc2c[nH]c3ccccc23)NC(=O)[C@H](CCC(N)=O)NC(=O)[C@H](CCCNC(=N)N)NC(=O)[C@H](Cc2ccccc2)NC(=O)[C@H]([C@@H](C)O)NC1=O [ct-GD20] ({CH2CO}-[dY]LITFRQWAFNLPCG-{NH(CH2CH2O)2(CH2)6Cl}; thioether N-14)

cell penetration (CAPA) (HeLa cells): further improved cell penetration
Molecule: CC[C@H](C)[C@@H]1NC(=O)[C@H](CC(C)C)NC(=O)[C@@H](Cc2ccc(O)cc2)NC(=O)CSC[C@@H](C(=O)NCC(=O)NCCOCCOCCCCCCCl)NC(=O)[C@@H]2CCCN2C(=O)[C@H](CC(C)C)NC(=O)[C@H](CC(N)=O)NC(=O)[C@H](CC(C)C)NC(=O)[C@H](C)NC(=O)[C@H](Cc2c[nH]c3ccccc23)NC(=O)[C@H](CCC(N)=O)NC(=O)[C@H](CCCNC(=N)N)NC(=O)[C@H](Cc2ccccc2)NC(=O)[C@H]([C@@H](C)O)NC1=O [ct-GD20-F10L] ({CH2CO}-[dY]LITFRQWALNLPCG-{NH(CH2CH2O)2(CH2)6Cl}; thioether N-14)

cell penetration (CAPA) (HeLa cells): measurable cell penetration
Molecule: CC[C@H](C)[C@@H]1NC(=O)[C@H](C)NC(=O)[C@H](Cc2ccc(O)cc2)NC(=O)[C@H](C(C)C)NC(=O)[C@H](CO)NC(=O)[C@H](CCC(N)=O)NC(=O)[C@H](Cc2ccccc2)NC(=O)[C@@H](Cc2ccc(O)cc2)NC(=O)CSC[C@@H](C(=O)NCC(=O)NCCOCCOCCCCCCCl)NC(=O)[C@H](CC(C)C)NC(=O)[C@H]([C@@H](C)O)NC(=O)CNC(=O)[C@H](Cc2c[nH]c3ccccc23)NC1=O [ct-GN13-E3Q] ({CH2CO}-[dY]FQSVYAIWGTLCG-{NH(CH2CH2O)2(CH2)6Cl}; thioether N-13)
